Data on 22 compounds can be found in patent US10927105B1 (Lundbeck La Jolla Research Center, Inc., priority 2017, dated 2021).

Molecules are shown by their SMILES. Some results are limits rather than exact numbers.

The target of this assay is MAGL (Homo sapiens (Human), UniProt Q99685). The assay can be described thus: In vitro competitive activity-based protein profiling (human prefrontal cortex membrane fractions, FP-Rh probe), MAGL band. The conditions noted are these: read-out: MAGL IC50 (μM) (human); human prefrontal cortex membrane fractions.
Chain of MAGL (Q99685 whole entry): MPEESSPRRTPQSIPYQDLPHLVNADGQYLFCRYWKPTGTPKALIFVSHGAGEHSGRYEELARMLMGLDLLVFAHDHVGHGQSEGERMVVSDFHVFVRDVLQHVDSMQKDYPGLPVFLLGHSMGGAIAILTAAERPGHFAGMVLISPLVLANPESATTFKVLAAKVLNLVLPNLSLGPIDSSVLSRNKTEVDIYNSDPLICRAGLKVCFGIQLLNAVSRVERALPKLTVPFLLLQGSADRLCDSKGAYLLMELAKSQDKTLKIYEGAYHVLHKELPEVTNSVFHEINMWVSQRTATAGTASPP

In the case of `O=C(O)c1ccn(C(=O)N2CCC3(CCN(Cc4cccc(Cl)c4Cl)C3)CC2)n1` [Example 286, 1-(2-(2,3-dichlorobenzyl)-2,8-diazaspiro[4.5]-decane-8-carbonyl)-1H-pyrazole-3-carboxylic acid], the 50% inhibitory concentration (IC50) is < 0.1 µM. As to `CC(C)(O)COc1cccc(O[C@H]2C[C@@H]3CN(C(=O)n4ccc(C(=O)O)n4)C[C@@H]3C2)c1Cl` [Example 451, 1-(trans-5-(2-chloro-3-(2-hydroxy-2-methylpropoxy)-phenoxy)-octahydrocyclopenta-[c]pyrrole-2-carbonyl)-1H-pyrazole-3-carboxylic acid], the IC50 is < 0.1 µM.

`O=C(O)c1ccn(C(=O)N2CCN(Cc3cccc(Oc4ccc(C(F)(F)F)cn4)c3)CC2)n1` [Example 61, 1-(4-(3-((5-(trifluoromethyl)-pyridin-2-yl)oxy)benzyl)-piperazine-1-carbonyl)-1H-pyrazole-3-carboxylic acid]: the concentration for half-maximal inhibition (IC50) is < 0.1 µM. As for `O=C(O)c1ccn(C(=O)N2CCC3(CCN(Cc4cc(Cl)cc(C(F)(F)F)c4)C3)CC2)n1` [Example 72, 1-(2-(3-chloro-5-(trifluoromethyl)-benzyl)-2,8-diazaspiro[4.5]-decane-8-carbonyl)-1H-pyrazole-3-carboxylic acid], the IC50 is < 0.1 µM. Regarding `Cc1cc(O[C@H]2C[C@@H]3CN(C(=O)n4ccc(C(=O)O)n4)C[C@@H]3C2)ccc1C(F)(F)F` [Example 254, 1-(trans-5-(3-methyl-4-(trifluoromethyl)-phenoxy)-octahydrocyclopenta-[c]pyrrole-2-carbonyl)-1H-pyrazole-3-carboxylic acid], the IC50 is < 0.1 µM.

Regarding `O=C(O)c1ccn(C(=O)N2C[C@H]3C[C@H](Oc4cc(Cl)cc(Cl)c4)C[C@H]3C2)n1` [Example 230, 1-(trans-5-(3,5-dichlorophenoxy)-octahydrocyclopenta-[c]pyrrole-2-carbonyl)-1H-pyrazole-3-carboxylic acid], the IC50 is < 0.1 µM. On to `Cc1c(CO[C@@H]2C[C@@H]3CN(C(=O)n4ccc(C(=O)O)n4)C[C@@H]3C2)cccc1C(F)(F)F` [Example 289, 1-(cis-5-((2-methyl-3-(trifluoromethyl)-benzyl)oxy)-octahydrocyclopenta-[c]pyrrole-2-carbonyl)-1H-pyrazole-3-carboxylic acid], for which the IC50 is < 0.1 µM. `O=C(O)c1nn(C(=O)N2CCC3(CCN(Cc4cc(Cl)cc(C(F)(F)F)c4)C3)CC2)cc1Cl` [Example 388, 4-chloro-1-(2-(3-chloro-5-(trifluoromethyl)-benzyl)-2,8-diazaspiro-[4.5]decane-8-carbonyl)-1H-pyrazole-3-carboxylic acid]: the half-inhibitory concentration (IC50) is < 0.1 µM. As to `O=C(O)c1ccn(C(=O)N2C[C@H]3C[C@H](Oc4cccc(-c5nccs5)c4)C[C@H]3C2)n1` [Example 261, 1-(trans-5-(3-(thiazol-2-yl)phenoxy)-octahydrocyclopenta-[c]pyrrole-2-carbonyl)-1H-pyrazole-3-carboxylic acid], the half-maximal inhibitory concentration (IC50) was < 0.1 µM. The value for `CNC(=O)c1ccn(C(=O)N2CCC3(CCN(Cc4cc(Cl)cc(C(F)(F)F)c4)C3)C2)n1` (stereo not shown) [Example 435, 1-(7-(3-chloro-5-(trifluoromethyl)-benzyl)-2,7-diazaspiro[4.4]-nonane-2-carbonyl)-N-methyl-1H-pyrazole-3-carboxamide] was < 0.1 µM; that for `C[C@H]1CN(Cc2cc(Cl)cc(C(F)(F)F)c2)CCN1C(=O)n1ccc(C(N)=O)n1` [Example 271, (S)-1-(4-(3-chloro-5-(trifluoromethyl)-benzyl)-2-methylpiperazine-1-carbonyl)-1H-pyrazole-3-carboxamide] was < 0.1 µM.

Consider `Cc1cn(C(=O)N2CCN(Cc3cccc(Oc4ccc(Cl)cc4)c3)CC2)nc1C(=O)O` [Example 129, 1-(4-(3-(4-chlorophenoxy)-benzyl)-piperazine-1-carbonyl)-4-methyl-1H-pyrazole-3-carboxylic acid], for which the IC50 is < 0.1 µM. As for `O=C(O)c1ccn(C(=O)N2CCC3(CCCN3Cc3ccc(C(F)(F)F)cc3N3CC4CCC(C3)O4)CC2)n1` [Example 416, 1-(1-(2-(8-oxa-3-azabicyclo[3.2.1]-octan-3-yl)-4-(trifluoromethyl)-benzyl)-1,8-diazaspiro[4.5]-decane-8-carbonyl)-1H-pyrazole-3-carboxylic acid], the half-maximal inhibitory concentration (IC50) is < 0.1 µM.

Turning to `CN(Cc1cc(Cl)ccc1C(F)(F)F)CC1CCN(C(=O)n2cc(Cl)c(C(=O)O)n2)CC1` [Example 54, 4-chloro-1-(4-(((5-chloro-2-(trifluoromethyl)-benzyl)(methyl)-amino)-methyl)piperidine-1-carbonyl)-1H-pyrazole-3-carboxylic acid], the IC50 was < 0.1 µM.

`Cc1cn(C(=O)N2C[C@H]3C[C@H](OCc4cc(F)cc(Cl)c4)C[C@H]3C2)nc1C(=O)O` [Example 252, 1-(trans-5-((3-chloro-5-fluorobenzyl)oxy)-octahydrocyclopenta-[c]pyrrole-2-carbonyl)-4-methyl-1H-pyrazole-3-carboxylic acid]: the half-maximal inhibitory concentration (IC50) was < 0.1 µM. Take `O=C(O)c1nn(C(=O)N2CCC3(CCN(Cc4cc(Cl)ccc4C(F)(F)F)C3)CC2)cc1Cl` [Example 133, 4-chloro-1-(2-(5-chloro-2-(trifluoromethyl)-benzyl)-2,8-diazaspiro[4.5]-decane-8-carbonyl)-1H-pyrazole-3-carboxylic acid]: the IC50 was < 0.1 µM. Regarding `O=C(O)c1ccn(C(=O)N2C[C@H]3C[C@H](Oc4ccccc4-c4ccccc4)C[C@H]3C2)n1` [Example 239, 1-(trans-5-([1,1′-biphenyl]-2-yloxy)-octahydrocyclopenta-[c]pyrrole-2-carbonyl)-1H-pyrazole-3-carboxylic acid], the 50% inhibitory concentration (IC50) is < 0.1 µM.

Take `NC(=O)c1ccn(C(=O)N2CCC3(CCCN3Cc3cc4ccc(C(F)(F)F)cc4s3)CC2)n1` [Example 22, 1-(1-((6-(Trifluoromethyl)benzo[b]thiophen-2-yl)methyl)-1,8-diazaspiro[4.5]decane-8-carbonyl)-1H-pyrazole-3-carboxamide]: the IC50 is < 0.1 µM. Regarding `O=C(O)c1ccn(C(=O)N2CCN(Cc3cccc(Oc4cccc(Cl)c4)c3)CC2)n1` [Example 84, 1-(4-(3-(3-chlorophenoxy)-benzyl)-piperazine-1-carbonyl)-1H-pyrazole-3-carboxylic acid], the IC50 was < 0.1 µM.

Consider `O=C(O)c1ccn(C(=O)N2CCC3(CCCN3Cc3ccc(C(F)(F)F)cc3N3CCCC3)CC2)n1` [Example 93, 1-(1-(2-(pyrrolidin-1-yl)-4-(trifluoromethyl)-benzyl)-1,8-diazaspiro[4.5]-decane-8-carbonyl)-1H-pyrazole-3-carboxylic acid], for which the IC50 is < 0.1 µM.

As to `O=C(O)c1ccn(C(=O)N2CCN(Cc3cccc(Oc4cc(C(F)(F)F)ccn4)c3)CC2)n1` [Example 57, 1-(4-(3-((4-(trifluoromethyl)-pyridin-2-yl)oxy)benzyl)-piperazine-1-carbonyl)-1H-pyrazole-3-carboxylic acid], the IC50 was < 0.1 µM.

As to `O=C(O)c1ccn(C(=O)N2CCC(OCc3cc(N4CCCC4)cc(C(F)(F)F)c3)CC2)n1` [Example 331, 1-(4-((3-(pyrrolidin-1-yl)-5-(trifluoromethyl)-benzyl)-oxy)piperidine-1-carbonyl)-1H-pyrazole-3-carboxylic acid], the IC50 is < 0.1 µM.
